Data on seven compounds can be found in patent US20250110152A1, “METHOD FOR CHARACTERIZING INTERACTION FORCE BETWEEN LIGNIN AND CELLULASE” (NANJING FORESTRY UNIVERSITY, priority 2022, published 2025).

The assay has as its system cellulase. Briefly: AFM test of lignin-cellulase interaction force and dissociation rate in liquid phase environment (cellulase-modified AFM probe, lignin film). The following applies: for interaction force between lignin / lignin model substance and cellulase: AFM force-displacement curves, liquid phase; for Feq: system lignin (model substance)-cellulase.

The structures appear in SMILES notation.

`COc1ccccc1O` [GA]: the “interaction force between lignin / lignin model substance and cellulase” value is reported as 0.58 nN; the Feq is 0.58 nN. Besides, the “most likely dissociation force” value (loading rate 3 pN/s) worked out at 0.39 nN. The “most likely dissociation force” value (loading rate 4 pN/s) turned out to be 0.41 nN. Further, the “most likely dissociation force” value (loading rate 6.61 pN/s) is on record as 0.58 nN. Besides, the “most likely dissociation force” value (loading rate 9 pN/s) was found to be 0.63 nN. Also, the “most likely dissociation force” value (loading rate 10 pN/s) was found to be 0.88 nN.

With `COc1cc(C(O)C(CO)Oc2ccccc2OC)ccc1O` (stereo not shown) [GG], the “interaction force between lignin / lignin model substance and cellulase” value came to 2.59 nN; the Feq was found to be 2.59 nN. The “most likely dissociation force” value (loading rate 5 pN/s) came out at 1.65 nN. The “most likely dissociation force” value (loading rate 10 pN/s) stood at 1.92 nN. The “most likely dissociation force” value (loading rate 15 pN/s) was 2.27 nN. For the setting “loading rate 20 pN/s”, the “most likely dissociation force” value was found to be 2.46 nN. Also, the “most likely dissociation force” value (loading rate 24.24 pN/s) came to 2.59 nN.

Turning to `CCCc1ccc(O)c(OC)c1` [G], the “interaction force between lignin / lignin model substance and cellulase” value worked out at 0.97 nN; the Feq is recorded as 0.97 nN. Further, the “most likely dissociation force” value (loading rate 1 pN/s) is 0.39 nN. Further, the “most likely dissociation force” value (loading rate 3 pN/s) is 0.87 nN. Further, the “most likely dissociation force” value (loading rate 5.74 pN/s) was found to be 0.97 nN. Also, where the note is “loading rate 7 pN/s”, the “most likely dissociation force” value turned out to be 1.06 nN. Also, where the note is “loading rate 12 pN/s”, the “most likely dissociation force” value is listed as 1.25 nN.

As for `O=C(O)/C=C/c1ccc(O)cc1` [H], the “interaction force between lignin / lignin model substance and cellulase” value worked out at 12.52 nN; the Feq is 12.52 nN. Where the note is “loading rate 5 pN/s”, the “most likely dissociation force” value turned out to be 5.00 nN. Moreover, the “most likely dissociation force” value (loading rate 7 pN/s) is 5.49 nN. For the same compound, the “most likely dissociation force” value (loading rate 10 pN/s) came out at 10.04 nN. The “most likely dissociation force” value (loading rate 15 pN/s) is 11.29 nN. Also, the “most likely dissociation force” value (loading rate 20 pN/s) came out at 12.52 nN.

For the compound `COc1ccccc1OC(CO)C(O)c1cc(OC)c(O)c(OC)c1` (stereo not shown) [SG], the “interaction force between lignin / lignin model substance and cellulase” value amounted to 11.69 nN; the Feq is 11.69 nN. Besides, the “most likely dissociation force” value (loading rate 10 pN/s) is 7.65 nN. The “most likely dissociation force” value (loading rate 13 pN/s) is on record as 8.25 nN. In addition, under “loading rate 15 pN/s”, the “most likely dissociation force” value turned out to be 8.80 nN. The “most likely dissociation force” value (loading rate 18.64 pN/s) is given as 11.69 nN. For the same compound, the “most likely dissociation force” value (loading rate 23 pN/s) is listed as 13.40 nN.

Consider `COc1cccc(OC)c1O` [S], for which the “interaction force between lignin / lignin model substance and cellulase” value worked out at 4.76 nN; the Feq stood at 4.76 nN. Also, the “most likely dissociation force” value (loading rate 3 pN/s) was found to be 3.02 nN. For the same compound, under “loading rate 5 pN/s”, the “most likely dissociation force” value was 4.05 nN. Moreover, under “loading rate 7.89 pN/s”, the “most likely dissociation force” value is on record as 4.76 nN. The “most likely dissociation force” value (loading rate 12 pN/s) is recorded as 5.21 nN. Also, the “most likely dissociation force” value (loading rate 20 pN/s) worked out at 8.54 nN.

Regarding `COc1cc(/C=C/CO)cc(OC)c1O` [S—OH], the “interaction force between lignin / lignin model substance and cellulase” value is listed as 4.31 nN; the Feq is 4.31 nN. Moreover, the “most likely dissociation force” value (loading rate 1 pN/s) is reported as 2.66 nN. The “most likely dissociation force” value (loading rate 3 pN/s) is recorded as 3.99 nN. The “most likely dissociation force” value (loading rate 5.79 pN/s) was found to be 4.31 nN. The “most likely dissociation force” value (loading rate 10 pN/s) was 4.58 nN. Moreover, for the setting “loading rate 18 pN/s”, the “most likely dissociation force” value is listed as 6.58 nN.
